US20090191193A1, “Aryl Vinyl Sulfides, Sulfones, Sulfoxides and Sulfonamides, Derivatives Thereof and Therapeutic Uses Thereof” (TEMPLE UNIVERSITY-OF THE COMMONWEALTH SYSTEM OF HIGHER …, priority 2006, published 2009)

Columns and labels:
DU145 (prostate cancer) = experiment: Effect on tumor cell lines, viable cell count by trypan blue exclusion (Latham et al.): DU145; format: cell-based; conditions: DU145 prostate cancer cells, viable cell count 96 hours after treatment
Protocol: (§1) The effect of the compounds of the invention on tumor cells was determined by the assay described by Latham et al., Oncogene 12:827-837 (1996). Tumor cells DU145 (prostate cancer), K562 (chronic myelogenous leukaemia), BT20 (breast carcinoma), H157 (non small cell lung carcinoma), or DLD1 (colon carcinoma) were plated in 6-well dishes at a cell density of 1.0×10^5 cells per 35-mm^2 well. […] The total number of viable cells was determined 96 hours later by trypsinizing the wells and counting the number of viable cells, as determined by trypan blue exclusion, using a hemacytometer. Normal HFL cells were treated with the same compounds under the same conditions of concentration and time.

[1] = test system: K562 (chronic myelogenous leukaemia); experiment: Effect on tumor cell lines, viable cell count by trypan blue exclusion (Latham et al.): K562; format: cell-based; conditions: K562 chronic myelogenous leukaemia cells, viable cell count 96 hours after treatment
Protocol: as §1

Row | SMILES | melting point [°C] | IC50 (DU145 (prostate cancer); Homo sapiens, DU-145, 96 h) [µM] | also measured
1 | COc1ccc(CS(=O)(=O)/C(C#N)=C/c2c(OC)cc(OC)cc2OC)cc1 [Example 1] | 178 to 180 | 25 | –
2 | COc1ccc(CS(=O)(=O)/C(C#N)=C/c2ccc(F)cc2F)cc1 [Example 2] | 138 to 140 | 100 | –
3 | COc1ccc(CS(=O)(=O)/C(C#N)=C/c2ccc(F)c([N+](=O)[O-])c2)cc1 [Example 3] | – | 50 | –
4 | N#C/C(=C\c1ccc(F)cc1F)S(=O)(=O)Cc1ccc(Br)cc1 [Example 4] | 146 to 148 | – | –
5 | COc1ccc(CS(=O)(=O)/C(C#N)=C/c2ccc(N)cc2)cc1 [Example 5] | 140 to 142 | 75 | –
6 | COc1ccc(CS(=O)(=O)/C(C#N)=C/c2ccc(F)c(N)c2)cc1 [Example 6] | 146 to 148 | – | –
7 | COc1ccc(CS(=O)(=O)/C(C#N)=C/c2ccc(F)cc2)cc1 [Example 7] | 171 to 173 | 100 | –
8 | COc1ccc(CS(=O)(=O)/C(C#N)=C/c2c(OC)cccc2OC)cc1 [Example 8] | 108 to 110 | 75 | –
9 | COc1ccc(CS(=O)(=O)/C(C#N)=C/c2ccccc2OC)cc1 [Example 9] | 143 to 145 | – | –
10 | COc1ccc(CS(=O)(=O)/C(C#N)=C/c2ccc([N+](=O)[O-])cc2)cc1 [Example 10] | 174 to 176 | – | –
11 | COc1ccc(CS(=O)(=O)/C(C#N)=C/c2ccoc2)cc1 [Example 12] | 150 to 153 | – | –
12 | COc1ccc(CS(=O)(=O)/C(C#N)=C/c2ccsc2)cc1 [Example 13] | 142 to 144 | – | –
13 | N#C/C(=C\c1ccccc1OC(F)F)S(=O)(=O)Cc1ccc(Br)cc1 [Example 14] | 204 to 206 | – | –
14 | COc1ccc(CS(=O)(=O)/C(C#N)=C/c2ccc(F)cc2Cl)cc1 [Example 15] | 138 to 140 | 25 | –
15 | COc1ccc(CS(=O)(=O)/C(C#N)=C/c2ccc(C#N)cc2F)cc1 [Example 17] | 112 to 114 | – | –
16 | COc1ccc(CS(=O)(=O)/C(C#N)=C/c2ccc3oc(=O)[nH]c3c2)cc1 [Example 22] | 210 to 212 | 10 | –
17 | COc1ccc(CS(=O)(=O)/C(C#N)=C/c2ccc3[nH]c(=O)oc3c2)cc1 [Example 23, (E)-2-[(4-methoxyphenyl)methanesulfonyl]-3-(2-benzoxazolon-6-yl)acrylonitrile] | 208 to 210 | 50 | –
18 | N#C/C(=C\c1ccc(O)c(O)c1)S(=O)(=O)Cc1ccc(Cl)cc1 [Example 24] | 178 to 180 | 10 | –
19 | COc1ccc(CS(=O)(=O)/C(C#N)=C/c2ccc(O)c(O)c2)cc1 [Example 25] | 144 to 146 | 10 | –
20 | COc1ccc(CS(=O)(=O)/C(C#N)=C/c2ccc(OC)c(OC)c2)cc1 [Example 26] | 156 to 158 | – | –

Row | SMILES | melting point [°C] | IC50 (DU145 (prostate cancer); Homo sapiens, DU-145, 96 h) [µM] | also measured
21 | COc1ccc(CS(=O)(=O)/C(C#N)=C/c2ccc3c(c2)OCO3)cc1 [Example 27, (E)-2-[(4-methoxyphenyl)methanesulfonyl]-3-(1,3-benzodioxole-5-yl)acrylonitrile] | 186 to 188 | 100 | –
22 | COc1ccc(CS(=O)(=O)/C(C#N)=C/c2ccc(O)c(O)c2)cc1OC [Example 28] | 196 to 198 | – | –
23 | COc1ccc(CS(=O)(=O)/C(C#N)=C/c2ccc3[nH]c(=O)oc3c2)cc1OC [Example 29] | – | 100 | –
24 | COc1ccc(CS(=O)(=O)/C(C#N)=C/c2ccc3oc(=O)[nH]c3c2)cc1OC [Example 30] | 174 to 176 | 100 | –
25 | N#C/C(=C\c1ccc([N+](=O)[O-])cc1)S(=O)(=O)Cc1ccc(Br)cc1 [Example 31] | 138 to 142 | – | –
26 | COc1ccc(CS(=O)(=O)/C(C#N)=C/c2c(F)c(F)c(F)c(F)c2F)cc1OC [Example 32] | – | 10 | –
27 | N#C/C(=C\c1c(F)c(F)c(F)c(F)c1F)S(=O)(=O)Cc1ccc(F)cc1 [Example 33] | 156 to 158 | 2.5 | –
28 | COc1cc(OC)c(/C=C(\C#N)S(=O)(=O)Cc2ccc(OC)c([N+](=O)[O-])c2)c(OC)c1 [Example 34] | 184 to 186 | – | –
29 | CCOC(=O)c1c(C)[nH]c(/C=C(\C#N)S(=O)(=O)Cc2ccc(F)cc2)c1C [Example 37, (E)-2-[(4-fluorophenyl)methanesulfonyl]-3-(4-ethoxycarbonyl-3,5-dimethylpyrrol-2-yl)acrylonitrile] | – | 50 to 100 | IC50 ([1]; Homo sapiens, K562, 96 h): 50 to 100 µM
30 | CSc1ccc(/C=C(\C#N)S(=O)(=O)Cc2ccc(Cl)cc2)cc1 [Example 43] | – | – | IC50 (DU145 (prostate cancer)): > 100 µM; IC50 [1]: 50 to 100 µM
31 | Cc1ccc(/C=C(\C(N)=O)S(=O)(=O)Cc2ccc(Cl)cc2Cl)cc1C [Example 151] | 193 to 196 | – | –
32 | COc1cc(OC)c(/C=C(\C(N)=O)S(=O)(=O)Cc2ccc(Cl)cc2Cl)c(OC)c1 [Example 152] | 201 to 204 | – | –
33 | NC(=O)/C(=C\c1ccc(Br)cc1)S(=O)(=O)Cc1ccc(Cl)cc1Cl [Example 153] | 195 to 196 | – | –
34 | COc1ccc(/C=C(\C(N)=O)S(=O)(=O)Cc2ccc(Cl)cc2Cl)cc1O [Example 154, (E)-2-[(2,4-dichlorophenyl)methanesulfonyl]-3-(3-hydroxy-4-methoxyphenyl)acrylamide] | 185 to 189 | – | –
35 | NC(=O)/C(=C\c1cccc(Cl)c1Cl)S(=O)(=O)Cc1ccc(F)cc1 [Example 155] | 188 to 193 | – | –
36 | NC(=O)/C(=C\c1ccc(Cl)cc1Cl)S(=O)(=O)Cc1ccccc1Cl [Example 156] | 158 to 164 | – | –
37 | Cc1ccc(C)c(/C=C(\C(N)=O)S(=O)(=O)Cc2ccc(Cl)cc2)c1 [Example 157] | 79 to 82 | – | –
38 | CCOc1ccc(/C=C(\C(N)=O)S(=O)(=O)Cc2ccc(Cl)cc2)cc1OC [Example 158, (E)-2-[(4-chlorophenyl)methanesulfonyl]-3-(4-ethoxy-3-methoxyphenyl)acrylamide] | 195 to 197 | – | –
39 | CCOc1ccc(/C=C(\C(N)=O)S(=O)(=O)Cc2ccc([N+](=O)[O-])cc2)cc1OC [Example 159, (E)-2-[(4-nitrophenyl)methanesulfonyl]-3-(4-ethoxy-3-methoxyphenyl)acrylamide] | 235 to 240 | – | –
40 | Cc1ccc(C)c(/C=C(\C(N)=O)S(=O)(=O)Cc2ccc(F)cc2)c1 [Example 160] | 172 to 176 | – | –

Row | SMILES | melting point [°C] | IC50 (DU145 (prostate cancer); Homo sapiens, DU-145, 96 h) [µM] | also measured
41 | NC(=O)/C(=C\c1ccc(Br)cc1)S(=O)(=O)Cc1ccc(F)cc1 [Example 161] | 199 to 200 | – | –
42 | NC(=O)/C(=C\c1cc(F)c(F)cc1F)S(=O)(=O)Cc1ccc(F)cc1 [Example 162] | 168 to 170 | – | –
43 | Cc1cc(C)cc(/C=C(\C(N)=O)S(=O)(=O)Cc2ccc(Cl)cc2)c1 [Example 163] | 172 to 176 | – | –
44 | CCOc1ccc(/C=C(\C(N)=O)S(=O)(=O)Cc2ccc(F)cc2)cc1OC [Example 164, (E)-2-[(4-fluorophenyl)methanesulfonyl]-3-(4-ethoxy-3-methoxyphenyl)acrylamide] | 197 to 202 | – | –
45 | NC(=O)/C(=C\c1ccc(Cl)cc1Cl)S(=O)(=O)Cc1ccc(Cl)cc1 [Example 165] | 206 to 210 | – | –
46 | NC(=O)/C(=C\c1ccc(F)cc1Cl)S(=O)(=O)Cc1ccc(Cl)cc1 [Example 166] | 194 to 199 | – | –
47 | CC(=O)c1ccc(/C=C(\C(N)=O)S(=O)(=O)Cc2ccc(Cl)cc2Cl)cc1 [Example 167] | 207 to 210 | – | –
48 | CCOc1ccc(/C=C(\C(N)=O)S(=O)(=O)Cc2ccc(Cl)cc2Cl)cc1OC [Example 168, (E)-2-[(2,4-dichlorophenyl)methanesulfonyl]-3-(4-ethoxy-3-methoxyphenyl)acrylamide] | 245 to 247 | – | –
49 | NC(=O)/C(=C\c1cccc(Cl)c1Cl)S(=O)(=O)Cc1ccc([N+](=O)[O-])cc1 [Example 169] | 200 to 202 | – | –
50 | COc1ccc(CS(=O)(=O)/C(=C/c2c(OC)cc(OC)cc2OC)C(N)=O)cc1 [Example 171] | 168 to 171 | – | –
51 | COc1cc(OC)c(/C=C(\C(N)=O)S(=O)(=O)c2ccccc2)c(OC)c1 [Example 178] | 164 to 167 | – | –
52 | COc1ccc(S(=O)(=O)/C(=C/c2ccc(F)cc2)C(N)=O)cc1 [Example 181] | 154 to 156 | – | –
53 | COc1ccc(S(=O)(=O)/C(=C/c2c(OC)cc(OC)cc2OC)C(N)=O)cc1 [Example 182] | 172 to 175 | – | –
54 | COc1cc(OC)c(/C=C(\[N+](=O)[O-])S(=O)(=O)c2ccc(C)cc2)c(OC)c1 [Example 185] | 192 to 194 | 50 | –
55 | COc1cc(OC)c(/C=C(\[N+](=O)[O-])S(=O)(=O)c2ccc(Br)cc2)c(OC)c1 [Example 186] | 184 to 186 | 25 | –
56 | COc1cc(OC)c(/C=C(\[N+](=O)[O-])S(=O)(=O)c2ccccc2)c(OC)c1 [Example 187] | 176 to 180 | – | –
57 | COc1ccc(NS(=O)(=O)/C(C#N)=C/c2c(OC)cccc2OC)cc1 [Example 193] | 154 to 156 | – | –
58 | COc1ccc(NS(=O)(=O)/C(C#N)=C/c2cc(OC)cc(OC)c2)cc1 [Example 201] | 167 to 168 | > 100 | –
59 | COc1ccc(NS(=O)(=O)/C(C#N)=C/c2ccc(C)c(C)c2)cc1 [Example 203] | 152 to 154 | > 100 | –
60 | COc1ccc(NS(=O)(=O)/C(C#N)=C/c2cc(Cl)cc(Cl)c2Cl)cc1 [Example 294] | 180 to 181 | – | IC50 ([1]; Homo sapiens, K562, 96 h): < 1 µM
